Measurements reported in US4725683A, “Fluorophenoxyphenoxypropionates and derivatives thereof” (The Dow Chemical Company, priority 1985, dated 1988).

Legend:
Assay in all cases: Preemergent activity
Format in all cases: in vivo
Barnyard Grass = details: Echinochloa crus-galli, pre-emergence, read-out: Preemergence Control; for pest or weed control at 140 g/ha: 0.14 kgs/hectare; for pest or weed control at 1120 g/ha: 1.12 kgs/hectare; for pest or weed control at 560 g/ha: 0.56 kgs/hectare; for pest or weed control at 280 g/ha: 0.28 kgs/hectare; for pest or weed control at 70 g/ha: 0.07 kgs/hectare
Experimental: (§1) In a representative operation, 2-[4-(2-fluoro-4-trifluoromethylphenoxy)phenoxy]propionic acid methyl ester, to be utilized in a series of tests, is dissolved in acetone to one half of the final volume (twice the final concentration) to be used and the acetone solution in each case is admixed with an equal volume of water containing 0.1 percent by weight of Tween-20 surface active material (Tween-20 is a trademark of Atlas Chemical Company). The composition, generally in the nature of an emulsion, was employed to treat separate respective seed beds of sandy loam soil of good nutrient content wherein each seed bed contained separate groups of good viable seeds, each group being of one of a known plant species. The various beds were positioned side by side and exposed to substantially identical conditions of temperature and light. Each bed was maintained so as to prevent any interaction with the test compound in different seed beds. Each seed bed was treated with the composition as a spray employing conventional spraying equipment to deposit a predetermined amount of the compound uniformly throughout the surface of the bed. Another seed bed was treated only with the acetone-Tween-20 water mixture with no chemical added to serve as a control.

Wheat = details: Triticum aestivum, pre-emergence, read-out: Preemergence Control; for plant injury at 70 g/ha: 0.07 kgs/hectare; for plant injury at 140 g/ha: 0.14 kgs/hectare; for plant injury at 280 g/ha: 0.28 kgs/hectare; for plant injury at 560 g/ha: 0.56 kgs/hectare; for plant injury at 1120 g/ha: 1.12 kgs/hectare
Experimental: as §1

Yellow Foxtail = details: Setaria, pre-emergence, read-out: Preemergence Control; for pest or weed control at 140 g/ha: 0.14 kgs/hectare; for pest or weed control at 1120 g/ha: 1.12 kgs/hectare; for pest or weed control at 560 g/ha: 0.56 kgs/hectare; for pest or weed control at 280 g/ha: 0.28 kgs/hectare; for pest or weed control at 70 g/ha: 0.07 kgs/hectare
Experimental: as §1

Johnson Grass = details: Sorghum halepense, pre-emergence, read-out: Preemergence Control; for pest or weed control at 140 g/ha: 0.14 kgs/hectare; for pest or weed control at 1120 g/ha: 1.12 kgs/hectare; for pest or weed control at 560 g/ha: 0.56 kgs/hectare; for pest or weed control at 280 g/ha: 0.28 kgs/hectare; for pest or weed control at 70 g/ha: 0.07 kgs/hectare
Experimental: as §1

Wild Oats = details: Avena fatua, pre-emergence, read-out: Preemergence Control; for pest or weed control at 140 g/ha: 0.14 kgs/hectare; for pest or weed control at 1120 g/ha: 1.12 kgs/hectare; for pest or weed control at 560 g/ha: 0.56 kgs/hectare; for pest or weed control at 280 g/ha: 0.28 kgs/hectare; for pest or weed control at 70 g/ha: 0.07 kgs/hectare
Experimental: as §1

Row | SMILES | pest or weed control at 140 g/ha (Barnyard Grass) | pest or weed control at 1120 g/ha (Barnyard Grass) | plant injury at 70 g/ha (Wheat) | plant injury at 140 g/ha (Wheat) | plant injury at 280 g/ha (Wheat) | plant injury at 560 g/ha (Wheat) | plant injury at 1120 g/ha (Wheat) | pest or weed control at 140 g/ha (Yellow Foxtail) | pest or weed control at 1120 g/ha (Yellow Foxtail) | pest or weed control at 140 g/ha (Johnson Grass) | pest or weed control at 1120 g/ha (Johnson Grass) | pest or weed control at 140 g/ha (Wild Oats) | pest or weed control at 1120 g/ha (Wild Oats) | pest or weed control at 560 g/ha (Barnyard Grass) | pest or weed control at 560 g/ha (Yellow Foxtail) | pest or weed control at 560 g/ha (Johnson Grass) | pest or weed control at 560 g/ha (Wild Oats) | pest or weed control at 280 g/ha (Barnyard Grass) | pest or weed control at 280 g/ha (Yellow Foxtail) | pest or weed control at 280 g/ha (Johnson Grass) | other results
1 | CC(Oc1ccc(Oc2ccc(Br)cc2F)cc1)C(=O)Nc1ccc(C(F)(F)F)cc1 (stereo not shown) | 0% | 50% | 0% | 0% | 0% | 0% | 0% | 0% | 0% | 0% | 20% | 0% | 60% |  |  |  |  |  |  |  | 
2 | Cc1cc(Cl)ccc1NC(=O)C(C)Oc1ccc(Oc2ccc(Br)cc2F)cc1 (stereo not shown) | 0% | 100% | 0% | 0% | 0% | 0% | 40% | 0% | 100% | 0% | 60% | 0% | 90% | 0% | 70% | 0% | 0% |  |  |  | 
3 | COc1cccc(NC(=O)C(C)Oc2ccc(Oc3ccc(Br)cc3F)cc2)c1 (stereo not shown) | 0% | 100% | 0% | 0% | 0% | 0% | 0% | 0% | 100% | 0% | 100% | 0% | 30% | 100% | 80% | 30% | 40% | 100% | 20% | 30% | pest or weed control at 280 g/ha (Wild Oats): 0%
4 | CC(Oc1ccc(Oc2ccc(Br)cc2F)cc1)C(=O)OC1CCCC1 (stereo not shown) | 50% | 100% | 0% | 0% | 0% | 0% | 80% | 0% | 100% | 0% | 100% | 0% | 100% | 100% | 100% | 100% | 100% | 100% | 100% | 40% | pest or weed control at 280 g/ha (Wild Oats): 30%
5 | CC(Oc1ccc(Oc2ccc(Br)cc2F)cc1)C(=O)N(C)c1ccccc1 (stereo not shown) | 0% | 0% | 0% | 0% | 0% | 0% | 0% | 0% | 0% | 0% | 0% | 0% | 0% |  |  |  |  |  |  |  | 
6 | C=CCNC(=O)C(C)Oc1ccc(Oc2ccc(Br)cc2F)cc1 (stereo not shown) | 0% | 100% | 0% | 0% | 0% | 0% | 0% | 0% | 100% | 0% | 100% | 80% | 90% | 100% | 90% | 90% | 80% | 100% | 30% | 50% | pest or weed control at 280 g/ha (Wild Oats): 90%
7 | CC(Oc1ccc(Oc2ccc(Br)cc2F)cc1)C(N)=O (stereo not shown) [NH2, 2-(4-(4-Bromo-2-fluorophenoxy)phenoxy)propionamide] | 100% | 100% | 0% | 0% | 30% | 90% | 40% | 90% | 100% | 0% | 100% | 0% | 95% | 100% | 100% | 90% | 50% | 100% | 95% | 30% | pest or weed control at 70 g/ha (Barnyard Grass): 20%; pest or weed control at 70 g/ha (Yellow Foxtail): 0%; pest or weed control at 70 g/ha (Johnson Grass): 0%; pest or weed control at 70 g/ha (Wild Oats): 0%; pest or weed control at 280 g/ha (Wild Oats): 50%
8 | CC(Oc1ccc(Oc2ccc(Br)cc2F)cc1)C(=O)OCCN(C)C (stereo not shown) [O(CH2)2 N(CH3)2] | 100% | 100% | 0% | 0% | 0% | 0% | 0% | 0% | 100% | 0% | 100% | 30% | 99% | 100% | 100% | 95% | 90% | 100% | 0% | 60% | pest or weed control at 70 g/ha (Barnyard Grass): 70%; pest or weed control at 70 g/ha (Yellow Foxtail): 0%; pest or weed control at 70 g/ha (Johnson Grass): 0%; pest or weed control at 70 g/ha (Wild Oats): 0%; pest or weed control at 280 g/ha (Wild Oats): 30%
9 | CCOCCOC(=O)C(C)Oc1ccc(Oc2ccc(Br)cc2F)cc1 (stereo not shown) [O(CH2)2 OC2 H5] | 90% | 100% | 0% | 0% | 0% | 0% | 20% | 0% | 100% | 0% | 60% | 30% | 100% | 100% | 100% | 60% | 100% | 95% | 80% | 0% | pest or weed control at 70 g/ha (Barnyard Grass): 0%; pest or weed control at 70 g/ha (Yellow Foxtail): 0%; pest or weed control at 70 g/ha (Johnson Grass): 0%; pest or weed control at 70 g/ha (Wild Oats): 0%; pest or weed control at 280 g/ha (Wild Oats): 30%
